These are literature values, as cited in US20030185915A1, “Synergetic composition for the treatment of psoriasis and other skin disorders and method therefor” (priority 2002, published 2003).

The data set has as its system psoriatic arthritis. The note with it: usually within four to eight weeks.

Structures are written as SMILES.

Take `O=C(O)c1cc(/N=N/c2ccc(S(=O)(=O)Nc3ccccn3)cc2)ccc1O` [Sulfasalazine]: the “fraction of PA patients responding rapidly” value was “Approximately one-third”.
